Experimental data published in patent US6391566B1, “Ionotropic human glutamate receptor subunit NR3” (NPS Allelix Corporation, priority 1992, dated 2002).

Legend:
Assay type in all cases: cell-based
[1] = target: T1, NR3-1/NMDAR1-3C heteromeric complex (Homo sapiens, UniProt Q05586+Q13224); assay: Whole-cell voltage-clamp recording of NMDA-evoked currents in transiently transfected HEK293 cells (heteromeric expression); settings: 60 μM NMDA
T1 construct: expressed in transfected cells; host or cells: HEK293 (transient, lipofectamine)
Procedure: (§1) For transient expression, HEK293 cells were transfected with approximately 0.4 μg DNA (as pcDNA1-Amp/hNR3 or pcDNA1-Amp/hNR1-3C) per 10^5 HEK293 cells, by lipofectamine-mediated DNA transfection according to the manufacturer's (Life Technologies Inc., Gaithersburg, Md.) specifications. In coexpression experiments, i.e. for heteromeric expression of NR3-1 and NMDAR1-3C, the HEK293 cells were similarly transfected with 0.8 μg of a DNA mixture containing pcDNA1-Amp/hNR3 and pcDNA1-Amp/hNR1-3C. Briefly, HEK293 cells were plated at a density of 10^5 cells/dish and then grown for 24 hours in 10% FBS-supplemented MEM medium (Life Technologies Inc., Gaithersburg, Md.). The medium was then removed and cells were washed in OPTI-MEM I medium (Life Technologies Inc.) lacking FBS, prior to transfection. A transfection solution (100 μl ) containing 2-4 μl of lipofectamine and DNA was then applied to the cells. After incubation for 4 hours at 37° C., cells were washed as previously described and then allowed to grow for 48 hours in 10% FBS-supplemented MEM medium containing 50 μM DL-AP5 (2-amino-5-phosphonopentanoic acid) and 50 μM 7-chlorokyneurinic acid prior to electrophysiological recording. […]

NMDAR1-3C = target: T2, NMDAR1-3C (Homo sapiens, UniProt Q05586); assay: Whole-cell voltage-clamp recording of NMDA-evoked currents in HEK293 cells transfected with NMDAR1-3C alone; settings: 60 μM NMDA; HEK293 cells transiently transfected with NMDAR1-3C alone; FIG. 10
T2 construct: expressed in transfected cells; host or cells: HEK293 (transient, lipofectamine)
Procedure: as §1

NR3 = target: T3, NR3 (Homo sapiens, UniProt Q13224); assay: Whole-cell voltage-clamp recording of NMDA-evoked currents in HEK293 cells transfected with NR3 alone; settings: 60 μM NMDA; HEK293 cells transiently transfected with NR3 alone; FIG. 10
T3 construct: expressed in transfected cells; host or cells: HEK293 (transient, lipofectamine)
Procedure: as §1

T1 sequence (Q13224 27-1484, other chains not shown): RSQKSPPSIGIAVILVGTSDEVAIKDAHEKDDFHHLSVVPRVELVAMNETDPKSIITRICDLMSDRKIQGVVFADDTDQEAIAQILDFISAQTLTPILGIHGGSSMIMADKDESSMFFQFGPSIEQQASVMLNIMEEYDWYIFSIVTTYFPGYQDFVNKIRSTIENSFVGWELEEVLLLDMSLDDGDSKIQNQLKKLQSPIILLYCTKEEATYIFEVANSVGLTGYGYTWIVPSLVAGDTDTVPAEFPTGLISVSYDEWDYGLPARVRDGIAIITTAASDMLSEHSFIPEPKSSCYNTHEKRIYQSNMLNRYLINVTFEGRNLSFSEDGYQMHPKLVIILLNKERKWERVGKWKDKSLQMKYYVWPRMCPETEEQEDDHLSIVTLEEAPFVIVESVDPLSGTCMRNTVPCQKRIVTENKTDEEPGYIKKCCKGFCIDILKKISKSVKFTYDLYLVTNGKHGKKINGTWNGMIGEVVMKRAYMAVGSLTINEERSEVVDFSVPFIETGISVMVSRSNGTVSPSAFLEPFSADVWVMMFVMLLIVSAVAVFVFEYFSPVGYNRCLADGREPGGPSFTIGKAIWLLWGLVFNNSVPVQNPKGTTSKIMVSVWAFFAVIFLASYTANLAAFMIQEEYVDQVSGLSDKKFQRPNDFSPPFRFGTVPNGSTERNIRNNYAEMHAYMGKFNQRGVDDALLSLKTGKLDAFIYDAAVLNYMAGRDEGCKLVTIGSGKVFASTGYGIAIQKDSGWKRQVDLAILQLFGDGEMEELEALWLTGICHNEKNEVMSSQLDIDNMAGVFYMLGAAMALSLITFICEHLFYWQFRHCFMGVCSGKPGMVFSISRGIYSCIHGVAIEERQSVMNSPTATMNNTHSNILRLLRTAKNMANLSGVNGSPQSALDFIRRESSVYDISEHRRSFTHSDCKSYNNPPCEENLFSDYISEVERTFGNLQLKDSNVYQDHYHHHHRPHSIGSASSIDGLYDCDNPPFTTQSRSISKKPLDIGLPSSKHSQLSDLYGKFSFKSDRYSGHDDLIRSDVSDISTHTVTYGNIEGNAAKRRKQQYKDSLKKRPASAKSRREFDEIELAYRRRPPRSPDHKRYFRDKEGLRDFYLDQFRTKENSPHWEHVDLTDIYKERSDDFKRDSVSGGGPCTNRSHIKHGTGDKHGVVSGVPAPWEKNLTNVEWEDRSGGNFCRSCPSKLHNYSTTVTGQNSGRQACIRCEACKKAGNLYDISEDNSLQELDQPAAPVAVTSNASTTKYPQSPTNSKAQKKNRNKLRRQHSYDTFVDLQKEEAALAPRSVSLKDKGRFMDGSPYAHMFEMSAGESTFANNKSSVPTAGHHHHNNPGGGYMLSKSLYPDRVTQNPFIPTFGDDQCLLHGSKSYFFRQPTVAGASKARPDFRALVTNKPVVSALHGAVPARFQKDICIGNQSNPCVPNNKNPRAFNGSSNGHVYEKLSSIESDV
T3 sequence (Q13224 27-1484): as the sequence (Q13224 27-1484, other chains not shown) above

Compound: [Cl-].[Cl-].[Mg+2] [MgCl2]
- block of NMDA-induced currents ([1]; 1 mM MgCl2, HEK293 cells transfected with both NR3-1 and NMDAR1-3C): blocked

Compound: CN[C@H](CC(=O)O)C(=O)O [NMDA, N-methyl-D-aspartate]
- NMDA-induced depolarizations (NMDAR1-3C): No NMDA-induced depolarizations were observed
- NMDA-induced depolarizations (NR3): No NMDA-induced depolarizations were observed
- NMDA-induced depolarizations ([1]; HEK293 cells transiently transfected with both NR3-1 and NMDAR1-3C, FIG. 10): NMDA-induced depolarizations were, however, observed
